Data as given in ChEMBL document CHEMBL3822446, “Synthesis of 1H-pyrrolo[3,2-h]quinoline-8-amine derivatives that target CTG trinucleotide repeats” (Bioorg Med Chem Lett, 2016).
Each block holds one molecule with its values, some of them ahead of it. Activity calls are given as the source filed them. The rule behind the calls is not given here.

Experiments:
[1] = Binding affinity to duplex DNA dT bulge (unknown origin) assessed as change in melting point at 50 uM by UV-Vis spectrophotometric analysis
[2] = Binding affinity to 5'-Biotinylated DNA d(CTG)9-3' (unknown origin) assessed as red shifting of abosrption band at 349 nm at 10 uM by UV-spectrophotometric analysis
[3] = Binding affinity to duplex DNA dG bulge (unknown origin) assessed as change in melting point at 50 uM by UV-Vis spectrophotometric analysis
[4] = Binding affinity to duplex DNA dC bulge (unknown origin) assessed as change in melting point at 50 uM by UV-Vis spectrophotometric analysis
[5] = Binding affinity to full match duplex DNA (unknown origin) assessed as change in melting point at 50 uM by UV-Vis spectrophotometric analysis
[6] = Binding affinity to duplex DNA dA bulge (unknown origin) assessed as change in melting point at 50 uM by UV-Vis spectrophotometric analysis
[7] = Binding affinity to 5'-Biotinylated DNA d(CTG)9-3' (unknown origin) by isothermal titration calorimetry
[8] = Binding affinity to 5'-Biotinylated DNA d(CAG)9-3' (unknown origin) at 0.63 to 10 uM after 120 sec by SPR assay
[9] = Binding affinity to 5'-Biotinylated DNA d(CCG)9-3' (unknown origin) after 120 sec by SPR assay; conditions: read-out: Kd(app)
[10] = Binding affinity to 5'-Biotinylated DNA d(CGG)9-3' (unknown origin) at 0.63 to 10 uM after 120 sec by SPR assay
[11] = Binding affinity to 5'-biotinylated DNA d(CTG)9-3' (unknown origin) after 120 sec by SPR assay; conditions: read-out: Kd(app)

- ΔTm [3]: 1.7 °C
- ΔTm [4]: 3.5 °C
- ΔTm [5]: 0.9 °C
- ΔTm [6]: 1.7 °C
- ΔTm [1]: 4.7 °C
SMILES: NCCC(=O)Nc1ccc2ccc3cc[nH]c3c2n1

- ΔTm [1]: 3.6 °C
SMILES: NCCCC(=O)Nc1ccc2ccc3cc[nH]c3c2n1

- Kd [7]: 17 µM
- Activity [8]: inactive
- Kd [9]: 33 µM
- Activity [10]: inactive
- ΔTm [3]: 1 °C
- ΔTm [4]: 5.8 °C
- ΔTm [5]: 0.8 °C
- ΔTm [6]: 1.4 °C
- Activity [2]: 8 nm
- Kd [11]: 20 µM
- ΔTm [1]: 5.2 °C
SMILES: NCCCNC(=O)Nc1ccc2ccc3cc[nH]c3c2n1

- ΔTm [1]: 1.3 °C
SMILES: NCCCNC(=O)Nc1ccc2ccccc2n1

Further lines, the molecule ahead of its results:

SMILES: NCC(=O)Nc1ccc2ccc3cc[nH]c3c2n1
- ΔTm [1]: 2.9 °C

SMILES: Nc1cccc(N)n1
- Activity [2]: inactive

SMILES: NCCC(=O)Nc1ccc2ccccc2n1
- ΔTm [1]: 0.3 °C

SMILES: NCCCCC(=O)Nc1ccc2ccc3cc[nH]c3c2n1
- ΔTm [1]: 2.6 °C
